Measured values reported in patent US20060148730A1, “Method of treating tuberculosis” (priority 2003, published 2006).
Converted amounts (≈) assume the structure as drawn.

Tested on: M. tuberculosis H37Rv
Test: MIC vs. M. tuberculosis H37Rv, microplate Alamar Blue assay (MABA)
Format: cell-based
Settings: Mycobacterium tuberculosis, H37RV, Table 4; read-out: MIC

| SMILES | MIC [µM] |
| --- | --- |
| CC[C@H]1OC(=O)[C@H](C)C(O[C@H]2CC(C)(OC)[C@@H](OC(=O)Nc3ccccc3)[C@H](C)O2)[C@H](C)[C@@H](O[C@@H]2O[C@H](C)C[C@H](N(C)C)[C@H]2O)[C@](C)(OC)C[C@@H](C)C(=O)[C@H](C)[C@@H](O)[C@]1(C)O (stereo partly drawn) [Compound 1SH63] | 16 (≈ 13.9 µg/mL) |
| CC[C@H]1OC(=O)[C@H](C)[C@@H](OC2CC(C)(OC)C(OC(=O)c3ccccc3)C(C)O2)[C@H](C)[C@@H](OC2OC(C)CC(N(C)C)C2OC(=O)c2ccccc2)[C@](C)(OC)C[C@@H](C)C(=O)[C@H](C)[C@H]2N(NCCCc3ccnc4ccccc34)C(=O)O[C@]12C (stereo partly drawn) [Compound 1SH53b] | 11 (≈ 12.8 µg/mL) |
| CC[C@H]1OC(=O)[C@H](C)[C@@H](OC2CC(C)(OC)C(OC(=O)c3ccccc3)C(C)O2)[C@H](C)[C@@H](OC2OC(C)CC(N(C)C)C2O)[C@](C)(OC)C[C@@H](C)C(=O)[C@H](C)[C@H]2N(NCCCc3ccnc4ccccc34)C(=O)O[C@]12C (stereo partly drawn) [Compound 1SH53a] | 1.69 (≈ 1.79 µg/mL) |

Same assay, conditions: Table 1a, 11,12-carbamate derivatives; anti-TB activity; read-out: MIC

| SMILES | MIC [µM] |
| --- | --- |
| CC[C@H]1OC(=O)[C@H](C)C(=O)[C@H](C)[C@@H](O[C@@H]2O[C@H](C)C[C@H](N(C)C)[C@H]2O)[C@](C)(OC)C[C@@H](C)C(=O)[C@H](C)[C@H]2N(CCCCn3ccnc3)C(=O)O[C@]12C [RU61205] | 112 (≈ 82.3 µg/mL) |

Same assay, conditions: Table 3; parallel-synthesis carbazate library products, SPE purified; read-out: MIC

| SMILES | MIC [µM] |
| --- | --- |
| CC[C@H]1OC(=O)[C@H](C)[C@@H](O[C@H]2CC(C)(OC)[C@@H](O)[C@H](C)O2)[C@H](C)[C@@H](O[C@@H]2O[C@H](C)C[C@H](N(C)C)[C@H]2O)[C@](C)(OC)C[C@@H](C)C(=O)[C@H](C)[C@H]2N(NCc3cccnc3NC(=O)C(C)(C)C)C(=O)O[C@]12C (stereo partly drawn) [E4′] | >27 |
| CC[C@H]1OC(=O)[C@H](C)[C@@H](O[C@H]2CC(C)(OC)[C@@H](O)[C@H](C)O2)[C@H](C)[C@@H](O[C@@H]2O[C@H](C)C[C@H](N(C)C)[C@H]2O)[C@](C)(OC)C[C@@H](C)C(=O)[C@H](C)[C@H]2N(NCc3c(C(F)(F)F)nn(C)c3Cl)C(=O)O[C@]12C (stereo partly drawn) [D3′] | 20 (≈ 19.7 µg/mL) |
| CC[C@H]1OC(=O)[C@H](C)[C@@H](O[C@H]2CC(C)(OC)[C@@H](O)[C@H](C)O2)[C@H](C)[C@@H](O[C@@H]2O[C@H](C)C[C@H](N(C)C)[C@H]2O)[C@](C)(OC)C[C@@H](C)C(=O)[C@H](C)[C@H]2N(NCc3cccn3-c3ccc(Cl)cc3)C(=O)O[C@]12C (stereo partly drawn) [E12′] | 3.4 (≈ 3.32 µg/mL) |
| CC[C@H]1OC(=O)[C@H](C)[C@@H](O[C@H]2CC(C)(OC)[C@@H](O)[C@H](C)O2)[C@H](C)[C@@H](O[C@@H]2O[C@H](C)C[C@H](N(C)C)[C@H]2O)[C@](C)(OC)C[C@@H](C)C(=O)[C@H](C)[C@H]2N(NCC3CSN=N3)C(=O)O[C@]12C (stereo partly drawn) [G10′] | >16 |
| CC[C@H]1OC(=O)[C@H](C)[C@@H](O[C@H]2CC(C)(OC)[C@@H](O)[C@H](C)O2)[C@H](C)[C@@H](O[C@@H]2O[C@H](C)C[C@H](N(C)C)[C@H]2O)[C@](C)(OC)C[C@@H](C)C(=O)[C@H](C)[C@H]2N(NCc3cc(Br)cs3)C(=O)O[C@]12C (stereo partly drawn) [F11′] | 12.7 (≈ 12.2 µg/mL) |
| CC[C@H]1OC(=O)[C@H](C)[C@@H](O[C@H]2CC(C)(OC)[C@@H](O)[C@H](C)O2)[C@H](C)[C@@H](O[C@@H]2O[C@H](C)C[C@H](N(C)C)[C@H]2O)[C@](C)(OC)C[C@@H](C)C(=O)[C@H](C)[C@H]2N(NC/C=C/c3cc(OC)c(O)c(OC)c3)C(=O)O[C@]12C (stereo partly drawn) [A6′] | 10.2 (≈ 10 µg/mL) |
| CC[C@H]1OC(=O)[C@H](C)[C@@H](O[C@H]2CC(C)(OC)[C@@H](O)[C@H](C)O2)[C@H](C)[C@@H](O[C@@H]2O[C@H](C)C[C@H](N(C)C)[C@H]2O)[C@](C)(OC)C[C@@H](C)C(=O)[C@H](C)[C@H]2N(NCc3cncn3C)C(=O)O[C@]12C (stereo partly drawn) [B5′] | >27 |
| CC[C@H]1OC(=O)[C@H](C)[C@@H](O[C@H]2CC(C)(OC)[C@@H](O)[C@H](C)O2)[C@H](C)[C@@H](O[C@@H]2O[C@H](C)C[C@H](N(C)C)[C@H]2O)[C@](C)(OC)C[C@@H](C)C(=O)[C@H](C)[C@H]2N(NCc3cc(Cl)cc(Br)c3O)C(=O)O[C@]12C (stereo partly drawn) [G8′] | 14 (≈ 14.1 µg/mL) |
| CC[C@H]1OC(=O)[C@H](C)[C@@H](O[C@H]2CC(C)(OC)[C@@H](O)[C@H](C)O2)[C@H](C)[C@@H](O[C@@H]2O[C@H](C)C[C@H](N(C)C)[C@H]2O)[C@](C)(OC)C[C@@H](C)C(=O)[C@H](C)[C@H]2N(NCc3sccc3Oc3ccccc3)C(=O)O[C@]12C (stereo partly drawn) [G4′] | 13 (≈ 12.7 µg/mL) |
| CC[C@H]1OC(=O)[C@H](C)[C@@H](O[C@H]2CC(C)(OC)[C@@H](O)[C@H](C)O2)[C@H](C)[C@@H](O[C@@H]2O[C@H](C)C[C@H](N(C)C)[C@H]2O)[C@](C)(OC)C[C@@H](C)C(=O)[C@H](C)[C@H]2N(NCc3ccoc3)C(=O)O[C@]12C (stereo partly drawn) [A10′] | >7 |
| CCOC(=O)c1cc(-c2ccc(Cl)cc2)oc1CNN1C(=O)O[C@]2(C)[C@@H](CC)OC(=O)[C@H](C)[C@@H](O[C@H]3CC(C)(OC)[C@@H](O)[C@H](C)O3)[C@H](C)[C@@H](O[C@@H]3O[C@H](C)C[C@H](N(C)C)[C@H]3O)[C@](C)(OC)C[C@@H](C)C(=O)[C@H](C)[C@@H]12 (stereo partly drawn) [B1′] | >18 |
| CC[C@H]1OC(=O)[C@H](C)[C@@H](O[C@H]2CC(C)(OC)[C@@H](O)[C@H](C)O2)[C@H](C)[C@@H](O[C@@H]2O[C@H](C)C[C@H](N(C)C)[C@H]2O)[C@](C)(OC)C[C@@H](C)C(=O)[C@H](C)[C@H]2N(NCc3cnn(-c4ccc(F)cc4)c3C)C(=O)O[C@]12C (stereo partly drawn) [D7′] | 13 (≈ 12.7 µg/mL) |
| CC[C@H]1OC(=O)[C@H](C)[C@@H](O[C@H]2CC(C)(OC)[C@@H](O)[C@H](C)O2)[C@H](C)[C@@H](O[C@@H]2O[C@H](C)C[C@H](N(C)C)[C@H]2O)[C@](C)(OC)C[C@@H](C)C(=O)[C@H](C)[C@H]2N(NCCCc3ccccc3)C(=O)O[C@]12C (stereo partly drawn) [A2′] | 10 (≈ 9.06 µg/mL) |
| CC[C@H]1OC(=O)[C@H](C)[C@@H](O[C@H]2CC(C)(OC)[C@@H](O)[C@H](C)O2)[C@H](C)[C@@H](O[C@@H]2O[C@H](C)C[C@H](N(C)C)[C@H]2O)[C@](C)(OC)C[C@@H](C)C(=O)[C@H](C)[C@H]2N(NCc3cn(Cc4ccccc4)c4ccccc34)C(=O)O[C@]12C (stereo partly drawn) [C2′] | 7 (≈ 7.05 µg/mL) |
| CC[C@H]1OC(=O)[C@H](C)[C@@H](O[C@H]2CC(C)(OC)[C@@H](O)[C@H](C)O2)[C@H](C)[C@@H](O[C@@H]2O[C@H](C)C[C@H](N(C)C)[C@H]2O)[C@](C)(OC)C[C@@H](C)C(=O)[C@H](C)[C@H]2N(NCc3cccn3-c3ccc(C(F)(F)F)cc3)C(=O)O[C@]12C (stereo partly drawn) [F1′] | 17.6 (≈ 17.8 µg/mL) |
| CC[C@H]1OC(=O)[C@H](C)[C@@H](O[C@H]2CC(C)(OC)[C@@H](O)[C@H](C)O2)[C@H](C)[C@@H](O[C@@H]2O[C@H](C)C[C@H](N(C)C)[C@H]2O)[C@](C)(OC)C[C@@H](C)C(=O)[C@H](C)[C@H]2N(NCC3=Cc4ccccc4OC3)C(=O)O[C@]12C (stereo partly drawn) [G6′] | 11 (≈ 10.3 µg/mL) |
| CC[C@H]1OC(=O)[C@H](C)[C@@H](O[C@H]2CC(C)(OC)[C@@H](O)[C@H](C)O2)[C@H](C)[C@@H](O[C@@H]2O[C@H](C)C[C@H](N(C)C)[C@H]2O)[C@](C)(OC)C[C@@H](C)C(=O)[C@H](C)[C@H]2N(NC/C=C/c3ccccc3)C(=O)O[C@]12C (stereo partly drawn) [A4′] | 7 (≈ 6.33 µg/mL) |
| CC[C@H]1OC(=O)[C@H](C)[C@@H](O[C@H]2CC(C)(OC)[C@@H](O)[C@H](C)O2)[C@H](C)[C@@H](O[C@@H]2O[C@H](C)C[C@H](N(C)C)[C@H]2O)[C@](C)(OC)C[C@@H](C)C(=O)[C@H](C)[C@H]2N(NCc3cccc4nsnc34)C(=O)O[C@]12C (stereo partly drawn) [H3′] | >22 |
| CC[C@H]1OC(=O)[C@H](C)[C@@H](O[C@H]2CC(C)(OC)[C@@H](O)[C@H](C)O2)[C@H](C)[C@@H](O[C@@H]2O[C@H](C)C[C@H](N(C)C)[C@H]2O)[C@](C)(OC)C[C@@H](C)C(=O)[C@H](C)[C@H]2N(NCc3sc(C)nc3C)C(=O)O[C@]12C (stereo partly drawn) [F5′] | >19 |
| CC[C@H]1OC(=O)[C@H](C)[C@@H](O[C@H]2CC(C)(OC)[C@@H](O)[C@H](C)O2)[C@H](C)[C@@H](O[C@@H]2O[C@H](C)C[C@H](N(C)C)[C@H]2O)[C@](C)(OC)C[C@@H](C)C(=O)[C@H](C)[C@H]2N(NCc3csc(-c4ccccc4)n3)C(=O)O[C@]12C (stereo partly drawn) [F9′] | 12.6 (≈ 12.1 µg/mL) |
| CC[C@H]1OC(=O)[C@H](C)[C@@H](O[C@H]2CC(C)(OC)[C@@H](O)[C@H](C)O2)[C@H](C)[C@@H](O[C@@H]2O[C@H](C)C[C@H](N(C)C)[C@H]2O)[C@](C)(OC)C[C@@H](C)C(=O)[C@H](C)[C@H]2N(NCc3c(Sc4ccc(Cl)cc4)nc4sccn34)C(=O)O[C@]12C (stereo partly drawn) [H11′] | 35.4 (≈ 37.8 µg/mL) |

Same assay, conditions: Table 4; read-out: MIC

| SMILES | MIC [µM] |
| --- | --- |
| CCC1OC(=O)C(C)C(OC2CC(C)(OC)C(O)C(C)O2)C(C)C(OC2OC(C)CC(N(C)C)C2O)C(C)(OC)CC(C)C(=NOCCC2OCCO2)C(C)C(O)C1(C)O (stereo not drawn) [Compound 1GY11] | 29.5 (≈ 25.5 µg/mL) |
| CCC1OC(=O)C(C)C(OC2CC(C)(OC)C(O)C(C)O2)C(C)C(OC2OC(C)CC(N(C)C)C2O)C(C)(OC)CC(C)C(=NOC2CCCN(C(=O)OCc3ccccc3)C2)C(C)C(O)C1(C)O (stereo not drawn) [ITR0011] | 6.0 (≈ 5.88 µg/mL) |

Same assay, conditions: Table 5; read-out: MIC

| SMILES | MIC [µM] |
| --- | --- |
| CCC1OC(=O)C(C)C(OC2CC(C)(OC)C(OC(C)=O)C(C)O2)C(C)C(OC2OC(C)CC(N(C)C)C2OC(C)=O)C(C)(OC)CC(C)C(=O)C(C)C2N(NCCCc3ccnc4ccccc34)C(=O)OC12C (stereo not drawn) [ITR0005] | 7.7 (≈ 8.02 µg/mL) |
| CCC1OC(=O)C(C)C(OC2CC(C)(OC)C(O)C(C)O2)C(C)C(OC2OC(C)CC(N(C)C)C2O)C(C)(O)CC(C)C(=NNCc2ccc(C(F)(F)F)cc2)C(C)C(O)C1(C)O (stereo not drawn) [Compound 1OK133] | 25 (≈ 22.7 µg/mL) |
| CCC1OC(=O)C(C)C(OC2CC(C)(OC)C(O)C(C)O2)C(C)C(OC2OC(C)CC(N(C)C)C2O)C(C)(O)CC(C)C(=NN=Cc2ccc(C(F)(F)F)cc2)C(C)C(O)C1(C)O (stereo not drawn) [Compound 1OK95] | 27 (≈ 24.4 µg/mL) |
| CCC1OC(=O)C(C)C(OC2CC(C)(OC)C(O)C(C)O2)C(C)C(OC2OC(C)CC(N(C)C)C2O)C(C)(OC)CC(C)C(=NOC(C)(C)CC(C)=O)C(C)C(O)C1(C)O (stereo not drawn) [Compound 1GY27] | 31 (≈ 26.7 µg/mL) |
| CCC1OC(=O)C(C)C(OC2CC(C)(OC)C(O)C(C)O2)C(C)C(OC2OC(C)CC(N(C)C)C2O)C(C)(OC)CC(C)C(=NOCC(=O)c2ccc(-c3ccccc3)cc2)C(C)C(O)C1(C)O (stereo not drawn) [Compound 1GY53] | 6.8 (≈ 6.51 µg/mL) |
| CCC1OC(=O)C(C)C(O)C(C)C(OC2OC(C)CC([N+](C)(C)Cc3ccccc3)C2OCc2ccccc2)C(C)(OC)CC(C)C(=NOCc2ccccc2)C(C)C(O)C1(C)O (stereo not drawn) [Compound 2GY11] | 7.1 |
